{"source": "patent US8815210B2", "about": "“Diagnostic composition comprising plasma cations having superior safety profile” (GE Healthcare AS, priority 2009, dated 2014)", "key": {"[1]": {"system": "human serum albumin (HSA)", "experiment": "Binding to human serum albumin, equilibrium dialysis", "type": "in vitro ADME", "settings": "25 hours, citrated human plasma", "method": "The binding of Compound I to human serum albumin (HSA) was determined using an equilibrium dialysis method. The binding of Compound I to human serum albumin was determined to be very low, 3.1±1.3%, confirming the negligible interaction of the substance with endogenous proteins.\nThe binding of Compound I to human serum albumin (HSA) was determined using an equilibrium dialysis method. A stock solution of Compound I (5.0 mg/ml in phosphate buffered saline (PBS)) was mixed with citrate:human plasma in a ratio of 1:9. Equilibration was carried out in a Diachem Dianorm Dialyser against an aqueous phosphate buffered saline using a Diachem 10.17 MW cutoff 10000 membrane and was carried out for 25 hours. Analysis of the solutions was performed using an ICP-AES instrument. In addition, spiked PBS solutions were also equilibrated against citrated human plasma solutions to ensure that the equilibrium had been obtained. The binding of Compound I to human serum albumin was determined to be very low, 3.1±1.3%, confirming the negligible interaction of the substance with endogenous proteins. As a reference, the binding of iodixanol to HSA was determined to 0.4±0.9%."}, "porcine heart": {"system": "porcine heart", "experiment": "Intravenous and intra-arterial cardiovascular safety, acute porcine model (Example 3)", "type": "in vivo, pig", "method": "The intravenous (i.v) and intra-arterial (i.a.) safety of a composition of Compound I was shown in a separate study (ref. B145095). In this study the cardiovascular effects of Compound I in a composition with 45 mM NaCl and 0.5 mM CaCl2 was assessed at three dose levels in vivo in an acute porcine model.\nThe composition was administered either intra-arterially or intravenously into groups of three animals at one of three dose levels (1-fold, 2-fold or 3-fold the standard volume of 2 ml/kg). Each animal also received an equivalent volume of Ringer-Lactate solution as a volume control. CV effects: heart rate (HR), pulse oximetry, electrocardiogram (ECG), aortic pressure (systolic, diastolic and mean), left ventricular end diastolic pressure (LVEDP) were assessed. Ultrasound/echocardiography to assess stroke volume, ejection fraction and cardiac contractility were also evaluated."}, "[2]": {"experiment": "Osmolality, vapour pressure osmometer", "type": "physicochemical", "settings": "320 mgI/ml", "method": "The osmolality of Compound I was determined at four different concentrations, 204, 254, 310 and 324 mgI/ml. The osmolality of Compound I at 320 mgI/ml is 136 mOsm/kg.\nThe osmolality of Compound I was determined at four different concentrations, 204, 254, 310 and 324 mgI/ml. A Vapro 5520 vapour pressure osmometer from Vapro Inc. was used.\nThe osmolality of Compound I at 320 mgI/ml is lower than that of iodixanol, 136 mOsm/kg vs 210 mOsm/kg at 320 mgI/ml."}, "normal pigs": {"system": "normal pigs", "experiment": "Haemodynamic effects after LAD injection in normal pigs without balloon occlusion (Example 2b)", "type": "in vivo, pig", "settings": "25 ml into LAD, 45 to 70 seconds after injection", "from_the_text": "FIG. 5 depicts the effect of Compound I (with and without added Ca) and Visipaque on LVSP 45 to 70 seconds from the start of injection to the LAD of normal pigs normalised to Ringer Lacate (LR) injection.\nThe haemodynamic effects of compositions of Compound I with and without added CaCl2 were compared to Visipaque and Iopamidol following selective administration to the LAD in normal pigs without balloon occlusion. The effects of each contrast media were normalised to any effects seen with an equivalent injection of Ringer Lactate solution, which acted as a volume and electrolyte—“ratio” control. There were a total of 12 pigs in this study, and each pig received a single CM injected 3 times at volumes of 10 ml (4 ml/sec), 20 ml (1 ml/sec) and 25 ml (0.4 ml/sec) (total of 9 CM injections in each pig). Each CM was either preceded or followed by a control injection of Ringer Lactate, and the order of each injection (volume) was randomised in each pig."}, "[3]": {"system": "CD25^+-depleted peripheral blood mononuclear cells", "experiment": "In vitro T cell proliferation model", "type": "cell-based", "settings": "2 and 5 mg I/mL, 100 donors, positive response stimulation index ≧1.9", "method": "Generally, iodinated contrast media may cause late hypersensitivity reactions in susceptible patients from 1 hour to several days after exposure. These reactions are mainly non-serious skin eruptions such as macular, maculopapular and urticaria-like eruptions. Contrast media-induced delayed adverse reactions (DARs) such as skin eruptions appear to be caused by contrast media-reactive T cells that, upon recognizing the contrast media, proliferate and subsequently orchestrate an inflammatory reaction in the skin. The applicant has evaluated an in vitro T cell proliferation model designed to predict the relative frequency with which contrast media, such as Compound I, will cause late skin reactions in patients post-intravascular administration. Two contrast media, iodixanol and iohexol, with known rates of delayed skin reactions, and the new contrast medium, Compound I, was screened (2 and 5 mg I/mL) for in vitro T cell proliferation in CD25^+-depleted peripheral blood mononuclear cells from 100 donors representing world population HLA-DR frequencies. Positive T cell responses were evaluated according to published protocols and stimulation index values (positive response≧1.9). In vitro toxicity was tested by measuring cell viability of the first 10 donor samples incubated with test contrast media (5 mg I/mL). The results were that all major HLA-DR allotypes were represented with a frequency equivalent to the world population. No contrast media tested appeared to have a meaningful effect on cell viability. […] For iodixanol and iohexol, T cell proliferation responses for most donors occurred on days 7 and 8; statistical significance favored a reduced proliferation response to Compound I on day 8. In conclusions the model successfully established the relative frequency with which contrast media caused in vitro T cell activation. The results correlated with reported frequency of late skin reactions with two marketed contrast media and identified a lower frequency for Compound I."}, "[4]": {"experiment": "Viscosity, calibrated U-tube technique", "type": "physicochemical", "settings": "320 mgI/ml, 20° C.", "method": "The viscosity of compound I was determined at 20° C. and 37° C. at three different concentrations. The viscosity at 320 mgI/ml and 20° C. is around 24 mPas.\nThe viscosity of Compound I was determined at two different temperatures, 20° C. and 37° C. and three different concentrations, 246, 295 and 313 mgI/ml. The test solutions were isotonic through adjustment of the osmolality with NaCl and had been sterilized by autoclavation. The density of the solutions was determined using a Density meter, DMA58 (Anton Paar). A calibrated U-tube technique was used, where the time of fall was used as a measure of dynamic viscosity. The viscosity of compound I was determined at 20° C. and 37° C. at three different concentrations. In comparison with Visipaque, the viscosity at 320 mgI/ml and 20° C. is similar, around 24 mPas."}}, "note": "“Also recorded” adds a separate entry of the source.", "data": [{"smiles": "O=CN(CC(O)CN(C=O)c1c(I)c(C(=O)NCC(O)CO)c(I)c(C(=O)NCC(O)CO)c1I)c1c(I)c(C(=O)NCC(O)CO)c(I)c(C(=O)NCC(O)CO)c1I", "note": "(centres unmarked) [Compound I, 5-[formyl-[3-[formyl-[3,5-bis(2,3-dihydroxypropylcarbamoyl)-2,4,6-triiodophenyl]amino]-2-hydroxypropyl]amino]-N,N′-bis(2,3-dihydroxypropyl)-2,4,6-triiodobenzene-1,3-dicarboxamide]", "values": [{"measurement": "binding to human serum albumin (HSA)", "setting": "[1]", "result": "3.1±1.3", "unit": "%"}, {"measurement": "effect on aortic pressure (systolic, diastolic and mean)", "setting": "porcine heart; entire dose range, i.v. or i.a.", "result": "little or no effect"}, {"measurement": "QT interval", "setting": "porcine heart; i.a. or i.v. dosing", "result": "within the normal range"}, {"measurement": "myocardial performance, overall", "setting": "porcine heart; i.a. or i.v. route, up to 3-fold of 2 ml/kg", "result": "no overall changes to myocardial performance"}, {"measurement": "heart rate (HR)", "setting": "porcine heart; i.v. or i.a., 1- to 3-fold of 2 ml/kg", "result": "remained within normal ranges"}, {"measurement": "LVEDP", "setting": "porcine heart; increasing doses, i.v. or i.a.", "result": "slight increases"}, {"measurement": "end diastolic volume (EDV), echocardiography", "setting": "porcine heart; pig, in vivo", "result": "only a slight change"}, {"measurement": "rhythm disturbances (ECG)", "setting": "porcine heart; pig, in vivo", "result": "no Compound I-related rhythm disturbances"}, {"measurement": "oxygen saturation (pulse oximetry)", "setting": "porcine heart; throughout dosing, i.v. or i.a., 1- to 3-fold of 2 ml/kg, composition with 45 mM NaCl and 0.5 mM CaCl2", "result": "approximately 98%"}, {"measurement": "osmolality", "setting": "[2]", "result": 136, "unit": "mOsm/kg"}, {"measurement": "LVSP change normalised to Ringer Lactate", "setting": "normal pigs; composition with 45 mM NaCl and 0.5 mM CaCl2", "result": "−0.3", "unit": "mm Hg"}, {"measurement": "LVSP change normalised to Ringer Lactate (mean)", "setting": "normal pigs; composition with 45 mM NaCl, no added CaCl2", "result": "−5.7", "unit": "mm Hg"}, {"measurement": "positive T cell proliferation donor samples", "setting": "[3]", "result": "fewer positive T cell proliferation donor samples compared with iodixanol and iohexol; also recorded: lowest capacity for stimulating in vitro T cell proliferation"}, {"measurement": "viscosity", "setting": "[4]", "result": "around 24 mPas"}]}]}
